The numbers were not newly measured in US20210353650A1 (priority 2020, published 2021), which cites them from elsewhere.

Data set [1] deals with Vero African green monkey kidney epithelial cells. The note with it: Vero cells used in the CPE assay; 2012 study.
The conditions of data set [2]: nonhuman primates, daily administration of 10 mg/kg; EMA 2020.

Turning to `CCC(CC)COC(=O)[C@H](C)N[P@](=O)(OC[C@H]1O[C@@](C#N)(c2ccc3c(N)ncnn23)[C@H](O)[C@@H]1O)Oc1ccccc1` [Remdesivir], the “cytotoxicity toward host cells” value in data set [1] is “without causing cytotoxicity”. Moreover, in data set [2], the “intracellular levels of the triphosphate form” value is “sustained intracellular levels”. Further, the cytotoxic concentration in the data set on Vero E6 cells was above 100 mM.
